The source made the active and inactive calls. The rule behind the calls is not given here.
What was measured:
Plasmodium falciparum [1] = experiment: Antimalarial activity against […]-resistant Plasmodium falciparum TM91C235 assessed as [3H]hypoxanthine incorporation; assay type: functional, organism-based
Plasmodium falciparum [2] = experiment: Antimalarial activity against chloroquine-resistant Plasmodium falciparum W2 assessed as [3H]hypoxanthine incorporation; assay type: functional, organism-based
Vero = experiment: Cytotoxicity against african green monkey Vero cells upto 10 uM after 72 hrs; assay type: cell-based; conditions: chlorocebus sabaeus
[3] = Selectivity index, ratio of IC50 for african green monkey Vero cells to IC50 for chloroquine-sensitive Plasmodium falciparum D6; assay type: toxicity, cell-based; conditions: read-out: Selectivity Index
Plasmodium falciparum [4] = experiment: Antimalarial activity against chloroquine-sensitive Plasmodium falciparum D6 after 72 hrs; assay type: functional, organism-based; conditions: D6, 72 h
Plasmodium falciparum [5] = experiment: Antimalarial activity against chloroquine-resistant Plasmodium falciparum W2 after 72 hrs; assay type: functional, organism-based; conditions: W2, 72 h
[6] = Selectivity index, ratio of IC50 for african green monkey Vero cells to IC50 for chloroquine-resistant Plasmodium falciparum W2; assay type: toxicity, cell-based; conditions: read-out: Selectivity Index
[7] = Inhibition of beta-hematin formation after 14 hrs by spectrophotometry; assay type: functional
Plasmodium berghei [8] = experiment: Antimalarial activity against Plasmodium berghei NK-65 infected in Swiss Webster mouse assessed as mean survival time at 30 mg/kg, ip QD for 3 days administered 2 hrs post infection; assay type: functional; conditions: route intraperitoneal
Plasmodium berghei [9] = experiment: Antimalarial activity against Plasmodium berghei NK-65 infected in Swiss Webster mouse assessed as suppression of parasitemia at 10 mg/kg, ip QD for 3 days administered 2 hrs post infection measured on day 10; assay type: functional; conditions: route intraperitoneal
Plasmodium berghei [10] = experiment: Antimalarial activity against Plasmodium berghei NK-65 infected in Swiss Webster mouse assessed as cure from parasite infection at 30 mg/kg, ip QD for 3 days administered 2 hrs post infection measured on day 28; assay type: functional; conditions: route intraperitoneal
Plasmodium berghei [11] = experiment: Antimalarial activity against Plasmodium berghei NK-65 infected in Swiss Webster mouse assessed as suppression of parasitemia at 10 mg/kg, ip QD for 3 days administered 2 hrs post infection measured on day 5; assay type: functional; conditions: route intraperitoneal
Plasmodium berghei [12] = experiment: Antimalarial activity against Plasmodium berghei NK-65 infected in Swiss Webster mouse assessed as cure from parasite infection at 10 mg/kg, ip QD for 3 days administered 2 hrs post infection measured on day 28; assay type: functional, organism-based; set-up: dose 10 mg/kg
Plasmodium berghei [13] = experiment: Antimalarial activity against Plasmodium berghei NK-65 infected in Swiss Webster mouse assessed as suppression of parasitemia at 30 mg/kg, ip QD for 3 days administered 2 hrs post infection measured on day 10; assay type: functional; conditions: route intraperitoneal
Plasmodium berghei [14] = experiment: Antimalarial activity against Plasmodium berghei NK-65 infected in Swiss Webster mouse assessed as cure from parasite infection at 3.3 mg/kg, ip QD for 3 days administered 2 hrs post infection measured on day 28; assay type: functional, organism-based; set-up: dose 3.3 mg/kg
Plasmodium berghei [15] = experiment: Antimalarial activity against Plasmodium berghei NK-65 infected in Swiss Webster mouse assessed as suppression of parasitemia at 1.1 mg/kg, ip QD for 3 days administered 2 hrs post infection measured on day 7; assay type: functional; conditions: route intraperitoneal
Plasmodium berghei [16] = experiment: Antimalarial activity against Plasmodium berghei NK-65 infected in Swiss Webster mouse assessed as suppression of parasitemia at 30 mg/kg, ip QD for 3 days administered 2 hrs post infection measured on day 7; assay type: functional; conditions: route intraperitoneal
Plasmodium berghei [17] = experiment: Antimalarial activity against Plasmodium berghei NK-65 infected in Swiss Webster mouse assessed as cure from parasite infection at 1.1 mg/kg, ip QD for 3 days administered 2 hrs post infection measured after 28 days; assay type: functional, organism-based; set-up: dose 1.1 mg/kg
Plasmodium falciparum [18] = experiment: Antimalarial activity against chloroquine-sensitive Plasmodium falciparum D6 assessed as [3H]hypoxanthine incorporation; assay type: functional, organism-based
Plasmodium berghei [19] = experiment: Antimalarial activity against Plasmodium berghei NK-65 infected in Swiss Webster mouse assessed as mean survival time at 1.1 mg/kg, ip QD for 3 days administered 2 hrs post infection measured on day 28; assay type: functional; conditions: route intraperitoneal
Plasmodium berghei [20] = experiment: Antimalarial activity against Plasmodium berghei NK-65 infected in Swiss Webster mouse assessed as suppression of parasitemia at 1.1 mg/kg, ip QD for 3 days administered 2 hrs post infection measured on day 10; assay type: functional; conditions: route intraperitoneal
Plasmodium berghei [21] = experiment: Antimalarial activity against Plasmodium berghei NK-65 infected in Swiss Webster mouse assessed as suppression of parasitemia at 30 mg/kg, ip QD for 3 days administered 2 hrs post infection measured on day 5; assay type: functional; conditions: route intraperitoneal
Plasmodium berghei [22] = experiment: Antimalarial activity against Plasmodium berghei NK-65 infected in Swiss Webster mouse assessed as mean survival time at 10 mg/kg, ip QD for 3 days administered 2 hrs post infection; assay type: functional; conditions: route intraperitoneal
Plasmodium berghei [23] = experiment: Antimalarial activity against Plasmodium berghei NK-65 infected in Swiss Webster mouse assessed as suppression of parasitemia at 3.3 mg/kg, ip QD for 3 days administered 2 hrs post infection measured on day 5; assay type: functional; conditions: route intraperitoneal
Plasmodium berghei [24] = experiment: Antimalarial activity against Plasmodium berghei NK-65 infected in Swiss Webster mouse assessed as suppression of parasitemia at 1.1 mg/kg, ip QD for 3 days administered 2 hrs post infection measured on day 5; assay type: functional; conditions: route intraperitoneal
Plasmodium berghei [25] = experiment: Antimalarial activity against Plasmodium berghei NK-65 infected in Swiss Webster mouse assessed as mean survival time at 3.3 mg/kg, ip QD for 3 days administered 2 hrs post infection; assay type: functional; conditions: route intraperitoneal
Plasmodium berghei [26] = experiment: Antimalarial activity against Plasmodium berghei NK-65 infected in Swiss Webster mouse assessed as suppression of parasitemia at 3.3 mg/kg, ip QD for 3 days administered 2 hrs post infection measured on day 10; assay type: functional; conditions: route intraperitoneal
Plasmodium berghei [27] = experiment: Antimalarial activity against Plasmodium berghei NK-65 infected in Swiss Webster mouse assessed as suppression of parasitemia at 10 mg/kg, ip QD for 3 days administered 2 hrs post infection measured on day 7; assay type: functional; conditions: route intraperitoneal
Plasmodium berghei [28] = experiment: Antimalarial activity against Plasmodium berghei NK-65 infected in Swiss Webster mouse assessed as suppression of parasitemia at 3.3 mg/kg, ip QD for 3 days administered 2 hrs post infection measured on day 7; assay type: functional; conditions: route intraperitoneal
Mus musculus = experiment: Toxicity in Plasmodium berghei NK-65 infected Swiss Webster mouse at 30 mg/kg, ip QD for 3 days; assay type: organism-based; set-up: dose 30 mg/kg, route intraperitoneal; conditions: in vivo, 72 h

SMILES	IC50 (Plasmodium falciparum [1]) [nM]	IC50 (Plasmodium falciparum [2]) [nM]	Activity (Vero)	selectivity ratio [3]	IC50 (Plasmodium falciparum [4]) [nM]	IC50 (Plasmodium falciparum [5]) [nM]	selectivity ratio [6]	IC50 [7] [nM]	Time (Plasmodium berghei [8]) [days]	Activity (Plasmodium berghei [10]) [%]	Activity (Plasmodium berghei [13]) [%]	Activity (Plasmodium berghei [16]) [%]	Activity (Plasmodium berghei [21]) [%]	other results
OC(c1cc(C(F)(F)F)nc2c(C(F)(F)F)cccc12)C1CCCCN1 (stereo not given) [MEFLOQUINE]	55.8	7.2	–	–	–	–	–	–	–	–	–	–	–	–
Br.Clc1ccc2c(N3CCNCCNCCNCC3)ccnc2c1	–	–	Non-toxic	> 154	64.8	211	> 48	–	–	–	–	–	–	–
Clc1ccc2c(N3CCNCCN(c4ccnc5cc(Cl)ccc45)CCNCC3)ccnc2c1	2.5	5.8	Non-toxic	> 1330	7.5	19.2	> 521	1100	>28	60	100	100	100	Activity (Plasmodium berghei [9]): 40.9%; Activity (Plasmodium berghei [11]): 96.3%; Activity (Plasmodium berghei [12]): inactive; Activity (Plasmodium berghei [14]): inactive; Activity (Plasmodium berghei [15]): 33.3%; Activity (Plasmodium berghei [17]): inactive; IC50 (Plasmodium falciparum [18]): 4.1 nM; Time (Plasmodium berghei [19]): 23.8 days; Activity (Plasmodium berghei [20]): 22.7%; Time (Plasmodium berghei [22]): 26.2 days; Activity (Plasmodium berghei [23]): 84.6%; Activity (Plasmodium berghei [24]): 65.2%; Time (Plasmodium berghei [25]): 22.8 days; Activity (Plasmodium berghei [26]): 43.9%; Activity (Plasmodium berghei [27]): 59.7%; Activity (Plasmodium berghei [28]): 44.1%
CCN(CC)CCCC(C)Nc1ccnc2cc(Cl)ccc12 (stereo not given) [CHLOROQUINE]	–	–	Non-toxic	–	–	–	–	9500	>28	75	100	100	100	Activity (Mus musculus): Non-toxic
C[C@@H]1CC[C@H]2[C@@H](C)C(=O)O[C@@H]3O[C@@]4(C)CC[C@@H]1[C@]32OO4 [ARTEMISININ]	–	–	Non-toxic	–	–	–	–	–	–	–	–	–	–	–
